The results in this text go back to PMC8042727, “Apoptosis-like cell death upon kinetoplastid induction by compounds isolated from the brown algae Dictyota spiralis” (Parasites & Vectors, 2021).

Holding throughout (format): cell-based
Data set [1] is described as follows: Cytotoxicity on macrophages (AlamarBlue, 24 h). The note with it: mouse, J774A.1 macrophages, J774A.1, 24 h, read-out: CC50: murine macrophages. How it is done:
Cytotoxicity of the tested molecules was evaluated after 24 h using macrophages of the murine cell line J774.A1 (American Type Culture Collection #TIB-67). The cells were maintained in DMEM medium at 37 °C in a 5% CO2 humidified incubator. The viability of the macrophages was determined with the AlamarBlue assay and the emitted fluorescence was assayed in an Enspire microplate reader (PerkinElmer Inc.) at 570/585 nm. Briefly, 50 µl of macrophages was placed in a 96-well flat bottom plate at a density of 2 × 10^5/ml in RPMI medium supplemented with 10% FBS without phenol. Cells were allowed to adhere for 15 min, and their progress was checked using a Leika inverted microscope (Leika Camera AG, Wetzlar, Germany). At the same time, a serially dilution of the test compounds was made in a deep 96-well plate with the same medium, and then 50 µl of each serially diluted molecule was added to each well of the 96-well flat bottom plate. Finally, 10% of AlamarBlue was added to each well. The plates were incubated at 37 °C in 5% CO2 for 24 h. Dose–response curves were plotted and the 50% cytotoxic concentrations (CC50) were obtained. The analyses were performed in triplicate.

The test system of data set [2] is Leishmania amazonensis amastigotes. The data set can be described thus: Anti-amastigotes assay (intra-macrophagic stage, J774A.1). The note with it: for Selectivity index: CC50 murine macrophages / IC50 amastigote; for IC50: J774.A1, Leishmania amazonensis, intracellular in J774A.1, read-out: IC50: amastigote. As for the experimental part:
The three molecules 1-3 were tested against the intra-macrophagic stage of L. amazonensis as previously described. Briefly, in a 96-well, flat-bottom plate, macrophages of the J774A.1 cell line (American Type Culture Collection #TIB-67) were cultured at a density of 2 × 10^5 cells/ml in RPMI 1640 medium supplemented with 10% heat-inactivated FBS and incubated for 1 h at 37 °C in a 5% CO2 atmosphere to allow almost complete attachment of the cells. The macrophages were then infected with L. amazonensis promastigotes in the stationary phase (7-day-old culture) at a ratio of 1:10 (macrophage:parasite) at a concentration of 2 × 10^6 cells/ml and incubated at 37 °C in 5% CO2 for 24 h. Wells were washed with medium to remove external promastigotes. Thereafter, the infected macrophages were treated with the serially diluted concentrations of the pure compounds for 24 h, following which the medium was removed carefully and replaced by 30 μl of new medium containing 0.05% sodium dodecyl sulfate and the plate shaken for 30 s. Subsequently, 170 μl of Schneider’s medium was added to each well to give a final volume of 200 μl, and 20 μl of AlamarBlue® was added to the plate; the plate was then incubated at 26 °C for 72 h, following which the plates were analyzed using the same protocol as for the promastigotes assay.

Data set [3] concerns Trypanosoma cruzi epimastigotes (Y strain). The data set can be described thus: In vitro evaluation on T. cruzi epimastigotes (AlamarBlue, 72 h). The note with it: for IC50: 72 h, read-out: IC50: epimastigote; for IC90: nonlinear regression of AlamarBlue curve, read-out: IC90 Trypanosoma cruzi: epimastigote. As for the experimental part:
Experiments including in vitro activity assays of isolated compounds 1–3 were performed against the promastigote and amastigote stages of Leishmania amazonensis (MHOM/BR/77/LTB0016) and the epimastigote stage of Trypanosoma cruzi (Y strain). Promastigotes of L. amazonensis were cultured in Schneider’s medium (Sigma-Aldrich, St. Louis, MO, USA). Typanosoma cruzi strain Y was cultured in liver Infusion tryptose (LIT) medium. The three molecules 1-3 were tested against epimastigotes of T. cruzi. Briefly, the molecules were dissolved in DMSO in 96-well plates and a serially diluted concentration was made in 100 μl of LIT medium supplemented with 10% heat-inactivated FBS. In all tests, a maximum of 1% DMSO was used to dissolve the highest dose of the compounds without inducing any effects on the parasites; epimastigotes in the logarithmic growth phase were then counted, adjusted to 5 × 10^5 cells/ml, distributed on the previous 96-well plate and incubated at 27 °C for 72 h. The plate was observed under an inverted microscope after 72 h of incubation and analyzed statistically as described for the leishmanicidal test. Hoechst dye is a blue-fluorescent dye that stains condensed chromatin of apoptotic cells. To detect DNA condensation, the chromatin condensation/dead cell apoptosis kit was used (Invitrogen, Thermo Fisher Scientific, Waltham, MA, USA). Cells were incubated in the presence of the compounds to be tested at IC90. The IC90 values were determined using nonlinear regression of the AlamarBlue® curve. After 24 h of incubation, cells were harvested and resuspended in medium, following which 1 μl of Hoechst 33342 stock solution was added to parasites and incubated for 20 min. Results were analyzed by cell imaging using the Evos FL cell imaging system (Thermo Fisher Scientific). The experiments were repeated using a double-stain apoptosis detection kit (Hoechst 33342/PI; Thermo Fisher Scientific). […] A positive control was also tested: miltefosine (L. amazonensis) and benznidazole (T. cruzi).

The subject of data set [4] is Leishmania amazonensis promastigotes. The experiment in a line: Plasma membrane permeability assay (SYTOX Green). The note with it: L. amazonensis, IC90, up to 6 h, compared to Triton X-100 (100%). How it is done:
This assay was performed to evaluate the cell’s membrane permeability. Following the manufacturer’s recommendations, promastigotes of L. amazonensis and epimastigotes of T. cruzi were incubated in phosphate saline buffer in the presence of 1 μM of SYTOX® Green nucleic acid stain (Life Technologies, Waltham, MA, USA) and the IC90 of the different test compounds to be tested. Variation in fluorescence was measured every 15 min for 6 h using the Enspire multimode plate reader at excitation/emission wavelengths of 485/520. The percentage of relative permeabilization was calculated in reference to complete permeabilization realized by adding Triton X-100 (Sigma-Aldrich). In addition, both L. amazonensis and T. cruzi cells were incubated for 24 h with compounds 1–3, miltefosine and benznidazole, and images were captured using the Evos cell imaging system.
One of the detectable cellular events of a necrotic cell death is the rupture of the plasma membrane. This event can be detected by evaluating plasma membrane permeabilization. We performed the SYTOX Green dye assay to detect effect of compounds 1–3 on membrane permeability. This green-fluorescence dye has a high affinity for DNA. Triton X-100 was used as a positive control in light of its known effect to cause 100% membrane permeabilization. Values of fluorescence were measured each 15 min for 6 h.

Each structure is given as a SMILES string.

Regarding `C=C(C)[C@H]1CC[C@]2(C)C[C@@H]3O[C@@]3(C)CC/C=C(\C)CC[C@@H]12` [Compound 3, 3,4-epoxy-7,18-dolabelladiene], the CC50 at 24 h in data set [1] was 69.98 ± 0.13 µM. Also, in data set [2], the Selectivity index is reported as 18.02 and the IC50 was 3.88 ± 0.17 µM. Also, in data set [3], the IC50 came out at 35.3 ± 4.09 µM and the concentration for an effect of 90% (IC90) was found to be 140 µM. Further, the “percentage of membrane permeabilization” value in data set [4] came to 35%.

`C=C1CC[C@@H]([C@@](C)(O)CCC=C(C)C)[C@@H](O)[C@@H]2C(C)=CC[C@@H]12` [Compound 2, dictyol E]: in data set [1], the half-maximal cytotoxic concentration (CC50) at 24 h came out at 52.1 ± 6.63 µM. In addition, in data set [2], the Selectivity index was 25.56 and the IC50 came out at 2.03 ± 0.22 µM. In addition, in data set [3], the concentration for half-maximal inhibition (IC50) was found to be 18.3 ± 0.91 µM and the IC90 worked out at 104 µM. Also, the “percentage of membrane permeabilization” value in data set [4] is less than 20%.

Turning to `CC(C)=CCC[C@](C)(O)[C@@H]1CC[C@@H](C)[C@@H]2CC=C(C)[C@H]2[C@@H]1O` [Compound 1, pachydictyol C], the cytotoxic concentration (CC50) at 24 h in data set [1] was 37 ± 2.74 µM. Further, in data set [2], the Selectivity index came to 37.76 and the IC50 worked out at 0.97 ± 0.13 µM. In data set [3], the IC50 is 13.1 ± 3.62 µM and the concentration for an effect of 90% (IC90) came out at 75.4 µM. Moreover, in data set [4], the “percentage of membrane permeabilization” value was less than 20%.
